Measured values published in patent US7112559B1, “Thickened quaternary ammonium compound sanitizer” (Ecolab Inc., priority 2005, dated 2006).

Key:
[1] = tested on: Staphylococcus aureus, ATCC # 6538; assay: Bactericidal efficacy vs. chlorine standard (available chlorine equivalence); assay type: cell-based; design: key to Growth in Test Tube 8 / Growth in Test Tube 9 / Growth in Test Tube 10 / Growth in Test Tube 1 / Growth in Test Tube 2 / Growth in Test Tube 3 / Growth in Test Tube 4 / Growth in Test Tube 5 / Growth in Test Tube 6 / Growth in Test Tube 7: (+) = growth; (−) = no growth; conditions: S. aureus
Method: (§1) Example 2 compared the bactericidal efficacy of the thickened quaternary ammonium compound sanitizer composition (Formula 7) to that of a known concentration of chlorine. […] The mix order for Formula 7 is as follows: (1) water; (2) propylene glycol; (3) LonzaGuard; (4) FD&C Red #40; (5) Methocel; (6) Triethanolamine; and (7) Ethanol. Formula 7 and the chlorine standard were tested against Staphylococcus aureus, ATCC # 6538 and Salmonella typhi, ATCC # 6539. The chlorine standard was prepared by adding 0.1 ml of a 5% NaOCl stock solution (refrigerated Clorox® bleach) to 100 ml of sterile phosphate buffer solution to create a 50–55 ppm available chlorine concentration.
(§2) For the chlorine standard test, 0.05 ml of the test culture was added to a test tube with 50 ppm available chlorine. The test tube was placed in a 20° C. water bath. After 1 minute, the solution was transferred to test tube 1 with 10 ml of Fluid Thioglycollate medium (commercially available from Becton Dickinson (Sparks, Md.)). These steps were repeated for nine test tubes.
(§3) For Formula 7, the same series of test tubes used for the available chlorine test was used to test the quaternary ammonium compound sanitizer composition. 0.05 ml of test culture was added to Formula 7. The test tube was placed in a 20° C. water bath. After 1 minute, the solution was transferred to a test tube with 10 ml of Letheen broth in place of the Fluid Thioglycollate medium.
(§4) The formulas in Table 4 were tested with Staphylococcus aureus, ATCC # 6538 and Salmonella typhi, ATCC # 6539. […] A “+” sign means that the test tube had bacteria growth.
(§5) Equivalency is met when the sample tubes have an absence of growth in as many tubes as the chlorine standard.

[2] = tested on: Salmonella typhi, ATCC # 6539; assay: as above; assay type: cell-based; design: key to Growth in Test Tube 8 / Growth in Test Tube 9 / Growth in Test Tube 10 / Growth in Test Tube 1 / Growth in Test Tube 2 / Growth in Test Tube 3 / Growth in Test Tube 4 / Growth in Test Tube 5 / Growth in Test Tube 6 / Growth in Test Tube 7: (+) = growth; (−) = no growth; conditions: S. typhi
Method: as §1, §2, §3, §4, §5

[3] = text does not separate the organisms

[Na+].[O-]Cl [NaOCl]
Growth in Test Tube 1 ([1]; 1 minute, 20° C.): −
Growth in Test Tube 2 ([1]; 1 minute, 20° C.): −
Growth in Test Tube 3 ([1]; 1 minute, 20° C.): +
Growth in Test Tube 4 ([1]; 1 minute, 20° C.): +
Growth in Test Tube 5 ([1]; 1 minute, 20° C.): +
Growth in Test Tube 6 ([1]; 1 minute, 20° C.): +
Growth in Test Tube 7 ([1]; 1 minute, 20° C.): +
Growth in Test Tube 8 ([1]; 1 minute, 20° C.): +
Growth in Test Tube 9 ([1]; 1 minute, 20° C.): +
Growth in Test Tube 10 ([1]; 1 minute, 20° C.): +
Growth in tubes 1–10 [1, 3]: growth in tubes 3–10
Growth in Test Tube 1 ([2]; 1 minute, 20° C.): −
Growth in Test Tube 2 ([2]; 1 minute, 20° C.): −
Growth in Test Tube 3 ([2]; 1 minute, 20° C.): +
Growth in Test Tube 4 ([2]; 1 minute, 20° C.): +
Growth in Test Tube 5 ([2]; 1 minute, 20° C.): +
Growth in Test Tube 6 ([2]; 1 minute, 20° C.): +
Growth in Test Tube 7 ([2]; 1 minute, 20° C.): +
Growth in Test Tube 8 ([2]; 1 minute, 20° C.): +
Growth in Test Tube 9 ([2]; 1 minute, 20° C.): +
Growth in Test Tube 10 ([2]; 1 minute, 20° C.): +
Growth in tubes 1–10 [2, 3]: growth in tubes 3–10
